# Experimental data from EPA's ToxRefDB 2.
# What was measured:
# rat [1] = settings: Prenatal developmental toxicity study, other, Oral, Gavage/Intubation, dose end: 15 GD
# rat [2] = settings: Prenatal developmental toxicity study, other, Oral, Gavage/Intubation, dose end: 15 GD; remark: listed apart in the source
# rat [3] = settings: Subchronic oral toxicity in rodents, other, Gavage/Intubation, dose end: 90 day, group: systemic, systemic / pathology microscopic / stomach / inflammation + systemic / pathology gross / stomach / thickened + systemic / pathology …
# rat [4] = settings: Multigenerational reproductive toxicity study, wistar, Oral, Feed, dose end: 2 generation
# rat [5] = settings: Multigenerational reproductive toxicity study, wistar, Oral, Feed, dose end: 2 generation; remark: listed apart in the source
# rat [6] = settings: Prenatal developmental toxicity study, sprague dawley, Oral, Gavage/Intubation, dose end: 15 GD, group: maternal
# rat [7] = settings: Multigenerational reproductive toxicity study, long evans, Oral, Feed, dose end: 2 generation
# dog = settings: Chronic toxicity; beagle; Oral; Capsule; dose end: 52 week; group: systemic; systemic / in life observation / body weight / body weight gain
# mouse [8] = settings: Multigenerational reproductive toxicity study, cd1, Oral, Feed, dose end: 1 generation
# rat [9] = settings: Prenatal developmental toxicity study, wistar, Oral, Gavage/Intubation, dose end: 18 GD
# mouse [10] = settings: Developmental neurotoxicity study, other, Oral, Gavage/Intubation, dose end: 147 PND, group: cannot be grouped
# mouse [11] = settings: Multigenerational reproductive toxicity study; cd1; Oral; Feed; dose end: 2 generation; group: reproductive; reproductive / reproductive performance / reproductive performance other / NOS + reproductive / reproductive performance / fertility / …
# mouse [12] = settings: Prenatal developmental toxicity study, cd1, Injection, Subcutaneous, dose end: 16 GD
# mouse [13] = settings: Prenatal developmental toxicity study; cd1; Oral; Gavage/Intubation; dose end: 16 GD; group: developmental; developmental / developmental landmark / vaginal opening / vaginal opening + systemic / in life observation / body weight / litter weight + …
# [14] = group: developmental, developmental / developmental malformation / bone / bent + developmental / developmental malformation / mouth / jaw / cleft palate + …
# [15] = group: maternal, systemic / in life observation / body weight / body weight
# [16] = group: maternal, systemic / in life observation / body weight / body weight + reproductive / reproductive performance / resorptions / resorptions + systemic…
# [17] = group: developmental, developmental / developmental malformation / bone / curled + developmental / developmental malformation / mouth / jaw / cleft palate + …
# [18] = group: maternal, systemic / in life observation / body weight / body weight gain
# [19] = group: offspring, systemic / in life observation / body weight / offspring (pup) weight
# [20] = group: offspring, systemic / in life observation / body weight / offspring (pup) weight + developmental / offspring survival late / lactation index / …
# [21] = group: parental, systemic / in life observation / body weight / body weight + systemic / in life observation / body weight / body weight gain
# [22] = group: parental, systemic / in life observation / body weight / body weight + systemic / in life observation / body weight / body weight gain + systemic / …
# [23] = group: reproductive, reproductive / offspring survival early / litter size / litter size
# [24] = group: offspring, systemic / in life observation / clinical signs / body cold to touch + systemic / in life observation / clinical signs / emaciation + …
# [25] = systemic / in life observation / body weight / body weight gain + systemic / in life observation / food consumption / food consumption + …
# [26] = group: offspring, systemic / in life observation / body weight / offspring (pup) weight + developmental / offspring survival late / viability index / …
# [27] = group: developmental, systemic / in life observation / body weight / offspring (pup) weight + systemic / organ weight / epididymis / absolute + systemic / organ …
# [28] = group: maternal, reproductive / reproductive performance / gestational length / gestational length + systemic / in life observation / body weight / body …
# [29] = systemic / clinical chemistry / [other] / [other] + systemic / in life observation / clinical signs / [other] + systemic / in life …
# [30] = systemic / in life observation / clinical signs / [other] + systemic / in life observation / clinical signs / aggressive behavior
# [31] = group: developmental, developmental / developmental malformation / general / [other] + developmental / developmental landmark / nipple development / nipple …
compound,measurement,setting,value
"CCC12COCN1COC2 [5-Ethyl-1-aza-3,7-dioxabicyclo[3.3.0]octane]",LEL,rat [1]; [14],750 mg/kg/day
same,LOAEL,rat [1]; [14],750 mg/kg/day
same,NEL,rat [1]; [14],500 mg/kg/day
same,NOAEL,rat [1]; [14],500 mg/kg/day
same,LEL,rat [1]; [15],500 mg/kg/day
same,LOAEL,rat [1]; [15],500 mg/kg/day
same,NEL,rat [1]; [16],250 mg/kg/day
same,NOAEL,rat [1]; [16],250 mg/kg/day
same,LEL,rat [2]; [17],650 mg/kg/day
same,LOAEL,rat [2]; [17],650 mg/kg/day
same,NEL,rat [2]; [17],250 mg/kg/day
same,NOAEL,rat [2]; [17],250 mg/kg/day
same,LEL,rat [2]; [18],650 mg/kg/day
same,LOAEL,rat [2]; [18],650 mg/kg/day
same,NEL,rat [2]; [18],250 mg/kg/day
same,NOAEL,rat [2]; [18],250 mg/kg/day
same,LEL,rat [3],50 mg/kg/day
same,LOAEL,rat [3],50 mg/kg/day
Cc1ccc(N(SC(F)(Cl)Cl)S(=O)(=O)N(C)C)cc1 [Tolylfluanid],LEL,rat [4]; [19],83.4 mg/kg/day
same,LOAEL,rat [4]; [19],83.4 mg/kg/day
same,NEL,rat [4]; [20],20.1 mg/kg/day
same,NOAEL,rat [4]; [20],20.1 mg/kg/day
same,LEL,rat [4]; [21],83.4 mg/kg/day
same,LOAEL,rat [4]; [21],83.4 mg/kg/day
same,NEL,rat [4]; [22],20.1 mg/kg/day
same,NOAEL,rat [4]; [22],20.1 mg/kg/day
same,LEL,rat [4]; [23],336 mg/kg/day
same,LOAEL,rat [4]; [23],> 336 mg/kg/day
same,NEL,rat [4]; [23],83.4 mg/kg/day
same,NOAEL,rat [4]; [23],≥ 336 mg/kg/day
same,LEL,rat [5]; [24],57.5 mg/kg/day
same,LOAEL,rat [5]; [24],57.5 mg/kg/day
same,NEL,rat [5]; [24],7.9 mg/kg/day
same,NOAEL,rat [5]; [24],7.9 mg/kg/day
same,LEL,rat [5]; [22],75.2 mg/kg/day
same,LOAEL,rat [5]; [22],75.2 mg/kg/day
same,NEL,rat [5]; [22],9.5 mg/kg/day
same,NOAEL,rat [5]; [22],9.5 mg/kg/day
same,LEL,rat [5]; [23],70.4 mg/kg/day
same,LOAEL,rat [5]; [23],70.4 mg/kg/day
same,NEL,rat [5]; [23],9.1 mg/kg/day
same,NOAEL,rat [5]; [23],9.1 mg/kg/day
same,LOAEL,rat [6]; systemic / in life observation / body weight / body weight gain + systemic / in life observation / food consumption / food consumption,1000 mg/kg/day
same,LEL,rat [6]; [25],1000 mg/kg/day
same,NEL,rat [6]; [25],300 mg/kg/day
same,NOAEL,rat [6]; [25],300 mg/kg/day
same,LOAEL,"rat [7]; group: offspring, systemic / in life observation / body weight / offspring (pup) weight + developmental / offspring survival late / [other] / [other]",375 mg/kg/day
same,LEL,"rat [7]; group: offspring, systemic / in life observation / body weight / offspring (pup) weight + developmental / offspring survival late / [other] / [other] + …",375 mg/kg/day
same,NEL,rat [7]; [26],75 mg/kg/day
same,NOAEL,rat [7]; [26],75 mg/kg/day
same,LEL,rat [7]; [21],375 mg/kg/day
same,LOAEL,rat [7]; [21],375 mg/kg/day
same,NEL,rat [7]; [21],75 mg/kg/day
same,NOAEL,rat [7]; [21],75 mg/kg/day
same,LEL,dog,62.5 mg/kg/day
same,LOAEL,dog,62.5 mg/kg/day
CC/C(=C(/CC)c1ccc(O)cc1)c1ccc(O)cc1 [Diethylstilbestrol],NOAEL,mouse [8]; [19],≥ 7.5e-09 mg/kg/day
same,NOAEL,"mouse [8]; group: reproductive, reproductive / reproductive performance / reproductive performance other / NOS + reproductive / reproductive performance / fertility / …",≥ 7.5e-09 mg/kg/day
same,LEL,rat [9]; [27],0.03 mg/kg/day
same,LOAEL,rat [9]; [27],> 0.03 mg/kg/day
same,NEL,rat [9]; [27],< 0.03 mg/kg/day
same,NOAEL,rat [9]; [27],≥ 0.03 mg/kg/day
same,LEL,rat [9]; [28],0.03 mg/kg/day
same,LOAEL,rat [9]; [28],> 0.03 mg/kg/day
same,NEL,rat [9]; [28],< 0.03 mg/kg/day
same,NOAEL,rat [9]; [28],≥ 0.03 mg/kg/day
same,LOAEL,mouse [10]; [29],> 0.003 mg/kg/day
same,NOAEL,mouse [10]; [29],≥ 0.003 mg/kg/day
same,LEL,mouse [10]; [30],0.0003 mg/kg/day
same,NEL,mouse [10]; [30],< 0.0003 mg/kg/day
same,NOAEL,mouse [11],≥ 7.5e-09 mg/kg/day
same,LEL,mouse [12]; [31],0.1 mg/kg/day
same,LOAEL,mouse [12]; [31],> 0.1 mg/kg/day
same,NEL,mouse [12]; [31],0.05 mg/kg/day
same,NOAEL,mouse [12]; [31],≥ 0.1 mg/kg/day
same,LEL,mouse [12]; [18],0.0025 mg/kg/day
same,LOAEL,mouse [12]; [18],0.0025 mg/kg/day
same,NEL,mouse [12]; [18],< 0.0025 mg/kg/day
same,NOAEL,mouse [12]; [18],< 0.0025 mg/kg/day
same,LEL,mouse [13],0.01 mg/kg/day
same,LOAEL,mouse [13],> 0.01 mg/kg/day
same,NEL,mouse [13],< 0.01 mg/kg/day
same,NOAEL,mouse [13],≥ 0.01 mg/kg/day
